Columns and labels:
[1] = target: T1, N-terminal GST-tagged recombinant human Flt3, residues 564-end (Homo sapiens, UniProt P36888); experiment: Flt3 kinase inhibition assay (33P-ATP filter assay); format: biochemical; details: 40 minutes at room temperature
T1 construct: recombinant human Flt3, residues 564-end; GST (N); purchased Upstate USA Inc, 706 Forest Street, Charlottesville, Va
T1 sequence (P36888 564-993 limits assumed): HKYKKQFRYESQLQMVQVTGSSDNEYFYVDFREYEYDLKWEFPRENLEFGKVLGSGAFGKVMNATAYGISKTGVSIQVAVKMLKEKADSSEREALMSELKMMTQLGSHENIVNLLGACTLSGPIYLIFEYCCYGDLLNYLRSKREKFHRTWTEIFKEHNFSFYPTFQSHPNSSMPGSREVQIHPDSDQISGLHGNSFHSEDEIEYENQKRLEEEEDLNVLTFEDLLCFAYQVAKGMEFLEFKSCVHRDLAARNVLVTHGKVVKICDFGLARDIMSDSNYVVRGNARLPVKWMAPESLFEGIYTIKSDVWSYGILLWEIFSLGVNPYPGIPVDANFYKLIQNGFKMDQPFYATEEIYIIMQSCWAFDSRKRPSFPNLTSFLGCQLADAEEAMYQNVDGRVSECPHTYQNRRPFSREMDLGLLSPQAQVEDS
Experimental: (§1) Compounds were assayed for Flt3 kinase inhibitory activity using N-terminal GST-tagged recombinant human Flt3, residues 564-end (Upstate USA Inc, 706 Forest Street, Charlottesville, Va.). Serial dilutions of compound were assayed in a final reaction volume of 25 μL by incubating a solution of the above Flt3 kinase (5-10 mU), 8 mM MOPS (3-(N-morpholino) propanesulfonic acid) pH 7.0, 0.2 mM EDTA (ethylenediamine tetracetic acid), 50 μM amino acid sequence EAIYAAPFAKKK (Upstate USA Inc, 706 Forest Street, Charlottesville, Va.), and 10 mM magnesium acetate and [γ-^33P-ATP] (specific activity of about 500 cpm/μmol, concentration as required). The reaction was initiated by the addition of the magnesium acetate and [γ-^33P-ATP] mixture. After incubation for 40 minutes at room temperature, the reaction was stopped by the addition of 5 μL of a 3% phosphoric acid solution. A 10 μL aliquote of the reaction was then spotted onto a P30 filtermat (PerkinElmer, Wellesley, Mass.) and washed three times for five minutes in 75 mM phosphoric acid and once in methanol prior to drying and scintillation counting. Inhibition of Flt3 activity was determined by comparison to assays that contained no inhibitor.

[2] = target: T2, N-terminal His6-tagged recombinant human KDR, residues 790-end (Homo sapiens, UniProt P35968); experiment: KDR kinase inhibition assay (33P-ATP filter assay); format: biochemical
T2 construct: recombinant human KDR, residues 790-end; His6 (N); purchased Upstate USA Inc, 706 Forest Street, Charlottesville, Va
T2 sequence (P35968 790-1356 limits assumed): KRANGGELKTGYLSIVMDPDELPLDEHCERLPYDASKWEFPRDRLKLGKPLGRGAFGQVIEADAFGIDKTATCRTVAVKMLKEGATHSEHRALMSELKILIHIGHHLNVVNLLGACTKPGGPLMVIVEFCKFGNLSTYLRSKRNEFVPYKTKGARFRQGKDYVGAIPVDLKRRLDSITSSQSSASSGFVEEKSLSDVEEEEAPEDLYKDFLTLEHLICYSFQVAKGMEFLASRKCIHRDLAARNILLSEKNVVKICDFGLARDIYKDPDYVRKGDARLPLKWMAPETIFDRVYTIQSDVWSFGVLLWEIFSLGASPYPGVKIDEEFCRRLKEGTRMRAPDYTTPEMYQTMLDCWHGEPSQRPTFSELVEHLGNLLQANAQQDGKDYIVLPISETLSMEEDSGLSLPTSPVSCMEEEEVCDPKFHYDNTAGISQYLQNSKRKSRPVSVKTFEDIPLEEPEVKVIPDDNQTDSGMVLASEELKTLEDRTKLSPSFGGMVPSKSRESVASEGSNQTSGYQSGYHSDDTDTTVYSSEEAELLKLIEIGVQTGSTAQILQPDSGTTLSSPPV
Experimental: as §1, with “KDR” for “Flt3”, “His6-tagged” for “GST-tagged”, “KDR,” for “Flt3,”, “790-end” for “564-end”, “0.33 mg/mL myelin basic protein” for “50 μM amino acid sequence EAIYAAPFAKKK”

[3] = target: T3, N-terminal His-tagged human Src (Homo sapiens, UniProt P12931); experiment: Src kinase inhibition assay (33P-ATP filter assay); format: biochemical
T3 construct: His (N); purchased Upstate USA Inc, 706 Forest Street, Charlottesville, Va
T3 sequence (P12931 whole entry): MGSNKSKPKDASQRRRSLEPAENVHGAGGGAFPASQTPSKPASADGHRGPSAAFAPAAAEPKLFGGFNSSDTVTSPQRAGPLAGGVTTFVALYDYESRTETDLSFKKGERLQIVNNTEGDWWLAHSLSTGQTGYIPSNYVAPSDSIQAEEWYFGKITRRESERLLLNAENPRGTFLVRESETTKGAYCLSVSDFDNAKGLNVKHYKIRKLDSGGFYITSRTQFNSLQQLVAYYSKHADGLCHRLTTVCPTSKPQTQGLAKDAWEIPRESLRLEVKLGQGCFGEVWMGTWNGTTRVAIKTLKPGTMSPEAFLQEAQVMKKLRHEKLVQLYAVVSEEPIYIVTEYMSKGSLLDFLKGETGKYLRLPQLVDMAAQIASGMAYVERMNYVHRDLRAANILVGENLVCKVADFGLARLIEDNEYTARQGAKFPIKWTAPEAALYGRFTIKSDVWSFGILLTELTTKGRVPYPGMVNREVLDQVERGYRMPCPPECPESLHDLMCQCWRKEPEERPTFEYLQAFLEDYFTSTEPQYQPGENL
Experimental: Compounds were assayed for Src kinase inhibitory activity using N-terminal His-tagged human Src (Upstate USA Inc, 706 Forest Street, Charlottesville, Va.). Serial dilutions of compound were assayed in a final reaction volume of 25 μL by incubating a solution of the above Src kinase (5-10 mU), 8 mM MOPS (3-(N-morpholino) propanesulfonic acid) pH 7.0, 0.2 mM EDTA (ethylenediamine tetracetic acid), 250 μM amino acid sequence KVEKIGEGTYGVVYK (Upstate USA Inc, 706 Forest Street, Charlottesville, Va.), and 10 mM magnesium acetate and [γ-^33P-ATP] (specific activity of about 500 cpm/μmol, concentration as required). The reaction was initiated by the addition of the magnesium acetate and [γ-^33P-ATP] mixture. After incubation for 40 minutes at room temperature, the reaction was stopped by the addition of 5 μL of a 3% phosphoric acid solution. A 10 μL aliquote of the reaction was then spotted onto a P30 filtermat (PerkinElmer, Wellesley, Mass.) and washed three times for five minutes in 75 mM phosphoric acid and once in methanol prior to drying and scintillation counting. Inhibition of Src activity was determined by comparison to assays that contained no inhibitor.

HCT116 cells = experiment: Whole cell cytotoxicity assay, Sulforhodamine B; format: cell-based; details: Homo sapiens, HCT-116, HCT116, 96 hours incubation, SRB; for GI50: read-out: GI50 HCT116 cell growth; for IC50: read-out: IC50 values in this assay (HCT116 cell growth)
Experimental: Human tumor-derived cell lines, HCT116 or MCF7 (ATCC) were plated in a 96 well plate in DMEM containing 10% fetal bovine serum and 2 mM L-glutamine at a density of 500 HCT116 cells or 1,000 MCF7 cells per well and incubated at 37° C., 5% CO2, for 24 hours prior to the addition of experimental compounds. Compounds were added using the dilution series indicated to duplicate plates and the cells were incubated in media plus compound for 96 hours. An additional plate was fixed in 10% TCA at the time of the addition of compound to provide a measurement of the cell population at time zero, the time of drug addition. Following the 96 hour incubation, cells were fixed in situ by gently aspirating off the culture media and then adding 50 ul of ice cold 10% TCA per well and incubation at 4° C. for 60 minutes. The plates were washed with tap water five times and allowed to air dry for 5 minute. 50 ul of a 0.4% (w/v) Sulforhodamine B solution in 1% (v/v) acetic acid was added per well and the cells were incubated for 30 minutes at room temperature. Following staining, plates were washed four times with 1% acetic acid to remove any unbound dye and then allowed to air dry for 5 minutes. The stain was solubilized with 100 ul of 10 mM Tris pH 10.5 per well and placed on an orbital rotator for 5 minutes. The absorbance was read at 570 nm. Percentage growth was calculated using the absorbance readings from the time zero plate (Tz) and the dilution series plate […] which included a column of cells grown in media without compound as a control (C) using the formulas:
[(Ti−Tz)/(C−Tz)]×100 for concentrations for which Ti>/=Tz
[(Ti−Tz)/Tz]×100 for concentrations for which Ti<Tz.
Three dose response parameters were calculated for each experimental agent. Growth inhibition of 50% (GI50) was calculated from [(Ti−Tz)/(C−Tz)]×100=50, which was the drug concentration resulting in a 50% reduction in the net protein increase (as measured by SRB staining) in control cells during the drug incubation. The drug concentration resulting in total growth inhibition (TGI) was calculated from Ti=Tz. The LC50 (concentration of drug resulting in a 50% reduction in the measured protein at the end of the drug treatment as compared to that at the beginning) indicating a net loss of cells following treatment ws calculated from [(Ti−Tz)/Tz]×100=−50. Values are calculated for each of these three parameters if the level of activity was reached; however, if the effect was not reached or was exceeded, the value for that parameter is expressed as greater or less than the maximum or minimum concentration tested.

[4] = group with IC50 greater than 100 nM

SMILES	IC50 [1]	IC50 ([2]; 40 minutes at room temperature)	IC50 ([3]; 40 minutes at room temperature)	IC50 [3, 4]	GI50 (HCT116 cells)	IC50 (HCT116 cells)	IC50 [2, 4]
Cc1cc(Nc2cc(N(C)CCN(C)C)nc(-c3ccccc3Cl)n2)n[nH]1 [Compound 50, 2-(2-chlorophenyl)-N4-(2-(dimethylamino)ethyl)-N4-methyl-N6-(5-methyl-1H-pyrazol-3-yl)pyrimidine-4,6-diamine]	≤ 100 nM	≤ 100 nM	≤ 100 nM	≤ 1000 nM	≤ 1000 nM	1000 to 10000 nM	
Cc1cc(Nc2cc(N(C)CCN(C)C)nc(-c3ccccc3C(F)(F)F)n2)n[nH]1 [Compound 114, N^4-(2-(dimethylamino)ethyl)-N^4-methyl-N^6-(5-methyl-1H-pyrazol-3-yl)-2-(2-(trifluoromethyl)phenyl)pyrimidine-4,6-diamine]	≤ 100 nM	≤ 100 nM		≤ 1000 nM		1000 to 10000 nM	
Cc1cc(Nc2cc(NC3CCOCC3)nc(-c3ccc4ccccc4c3)n2)n[nH]1 [Example 128, N^4-(5-methyl-1H-pyrazol-3-yl)-2-(naphthalen-2-yl)-N^6-(tetrahydro-2H-pyran-4-yl)pyrimidine-4,6-diamine]	≤ 100 nM	≤ 100 nM	≤ 100 nM			1000 to 10000 nM	
Cc1cc(Nc2cc(N(C)CCN(C)C)nc(-c3cccc4ccccc34)n2)n[nH]1 [Example 141, N^4-(2-(dimethylamino)ethyl)-N^4-methyl-N^6-(5-methyl-1H-pyrazol-3-yl)-2-(naphthalen-1-yl)pyrimidine-4,6-diamine]	≤ 100 nM			≤ 1000 nM	≤ 1000 nM		≤ 1000 nM
Cc1cc(Nc2cc(N(C)CCN(C)C)nc(-c3cccc(C)c3C)n2)n[nH]1 [Example 182, N^4-(2-(dimethylamino)ethyl)-2-(2,3-dimethylphenyl)-N^4-methyl-N^6-(5-methyl-1H-pyrazol-3-yl)pyrimidine-4,6-diamine]	≤ 100 nM			≤ 1000 nM		1000 to 10000 nM	≤ 1000 nM
Cc1cc(Nc2cc(N(C)CCN(C)C)nc(-c3cc(F)ccc3F)n2)n[nH]1 [Example 183, 2-(2,5-difluorophenyl)-N^4-(2-(dimethylamino)ethyl)-N^4-methyl-N^6-(5-methyl-1H-pyrazol-3-yl)pyrimidine-4,6-diamine]	≤ 100 nM	≤ 100 nM		≤ 1000 nM		1000 to 10000 nM	
CCc1ccccc1-c1nc(Nc2cc(C)[nH]n2)cc(N(C)CCN(C)C)n1 [Example 186, N^4-(2-(dimethylamino)ethyl)-2-(2-ethylphenyl)-N^4-methyl-N^6-(5-methyl-1H-pyrazol-3-yl)pyrimidine-4,6-diamine]	≤ 100 nM			≤ 1000 nM		1000 to 10000 nM	≤ 1000 nM
Cc1cc(Nc2cc(N3CCN(C)CC3)nc(-c3ccc(F)cc3F)n2)n[nH]1 [Example 189, 2-(2,4-difluorophenyl)-N-(5-methyl-1H-pyrazol-3-yl)-6-(4-methylpiperazin-1-yl)pyrimidin-4-amine]	≤ 100 nM			≤ 1000 nM		1000 to 10000 nM	≤ 1000 nM
